Experiments:
dogs [1] = experiment: Faecal characteristics of dog fed dry dog food with virginiamycin; assay type: in vivo; conditions: one dog, virginiamycin 0.5 mg/kg body weight for 7 days
Method: Two dogs were fed a commercial dry dog food for 4 weeks before and then during the experimental period. Virginiamycin (Eskalin 20) was added to the diet of one dog for a period of 7 days prior to faecal sampling to provide 0.5 mg/kg body weight. Samples of faeces were taken for the analysis of pH and lactic acid concentrations at the same time as those taken for isolation of lactic acid producing bacteria.

[2] = test system: Clostridium-like vitulinus (LV R2); experiment: Virginiamycin sensitivity test (broth growth); assay type: cell-based; conditions: Basal Medium 10 with glucose (0.5%)
Method: (§1) Two isolates of S. bovis from cattle and sheep (orange pigmented and white), five Clostridium-like vitulinus and three isolates of S. ruminantium were incubated in a branch of basal medium 10 with glucose (0.5%) and virginiamycin (VM) at a concentrations of 0, 2, 4, 6 and 8 μg/ml. The virginiamycin solution (100 μg VM/ml) was prepared using Eskalin Wettable Powder (WP), 400 g/kg VM (Pfizer Animal Health, NSW, Australia). The WP was dissolved in distilled water (previously boiled and bubbled with nitrogen until cooled) and filter-sterilised whilst being gassed with nitrogen. This solution was used immediately after preparation. […] The broth-media was inoculated by 0.2 ml of the different fresh viable cultures and 0.1–0.4 ml of VM solution was added to each tube to provide the required dose. A sensitivity test was also performed when VM was added 3 and 6 h after inoculation, using the same concentrations of VM. Tests for sensitivity to VM were conducted using […] of anaerobic incubation at 39° C.

[3] = test system: Clostridium-like vitulinus (LV R5); experiment: Virginiamycin sensitivity test (broth growth); assay type: cell-based; conditions: Basal Medium 10 with glucose (0.5%)
Method: as §1

[4] = test system: Clostridium-like vitulinus (LV R1); experiment: Virginiamycin sensitivity test (broth growth); assay type: cell-based; conditions: Basal Medium 10 with glucose (0.5%)
Method: as §1

[5] = test system: S. ruminantium (SR R1, SR R2 and SR R3); experiment: Virginiamycin sensitivity test (broth growth); assay type: cell-based; conditions: Basal Medium 10 with glucose (0.5%)
Method: as §1

[6] = test system: Clostridium-like vitulinus (LV R4); experiment: Virginiamycin sensitivity test (broth growth); assay type: cell-based; conditions: Basal Medium 10 with glucose (0.5%)
Method: as §1

[7] = test system: Clostridium-like vitulinus (LV R3); experiment: Virginiamycin sensitivity test (broth growth); assay type: cell-based; conditions: Basal Medium 10 with glucose (0.5%)
Method: as §1

dogs [8] = experiment: Virginiamycin dose trial in dogs fed tinned dog food with added raftilose (faecal measurements); assay type: in vivo; set-up: faecal Dry matter / faecal Total VFA: unit not given here; conditions: for faecal pH: raftilose diet; for faecal Consistency score: 5 = firm, normal faeces and 1 = diarrhoea
Method: The main objective of this trial was to investigate various doses of virginiamycin in terms of its effect on faecal consistency and hind gut fermentation.
Design: There were 4 treatment groups consisting of unmedicated control, and virginiamycin at 3 levels: 0.25, 0.5 and 1 mg/kg body weight. Dogs were acclimatised to a dict based on the tinned ‘No Frills’ dog food for approximately 2 weeks prior to a seven-day treatment period in which fructo-oligosaccharide raftilose was added to the diet at a rate of 3.5 g/kg metabolic body weight. There were five dogs per treatment.
Measurements were made of faecal pH, dry matter, consistency and chemical assays were conducted to measure VFA, D-lactic acid and L-lactic acid.

[9] = test system: Clostridium-like isolates; experiment: Virginiamycin sensitivity test, VM added 3 and 6 h after inoculation; assay type: cell-based, Clostridium-like vitulinus
Method: as §1

[10] = VM 0.25, 0.5 and 1 mg/kg body weight

virginiamycin
D(−)Lactate in faeces (dogs [1]): 0.45 mmol/L | L(+)Lactate in faeces (dogs [1]): 0.34 mmol/L | faecal pH (dogs [1]): 5.34 | VM level the isolate resisted up to [2]: 4 µg/mL | MIC level [3]: 2 µg/mL | MIC level [4]: 2 µg/mL | highest VM level to which isolates were resistant [5]: 8 µg/mL | VM level the isolate resisted up to [6]: 6 µg/mL | VM level the isolate resisted up to [7]: 4 µg/mL | faecal D-lactic acid concentration (dogs [8]; VM 0.25 mg/kg body weight): 0.2 | faecal Dry matter (dogs [8]; VM 0.25 mg/kg body weight): 22.0 | faecal L-lactic acid concentration (dogs [8]; VM 0.25 mg/kg body weight): 2.2 | faecal Total VFA (dogs [8]; VM 0.25 mg/kg body weight): 80.5 | faecal pH (dogs [8]; VM 0.25 mg/kg body weight): 5.2 | faecal Consistency score (dogs [8]; VM 0.25 mg/kg): 3.6 | faecal D-lactic acid concentration (dogs [8]; VM 0.5 mg/kg body weight): 0.4 | faecal Dry matter (dogs [8]; VM 0.5 mg/kg body weight): 22.5 | faecal L-lactic acid concentration (dogs [8]; VM 0.5 mg/kg body weight): 13.8 | faecal Total VFA (dogs [8]; VM 0.5 mg/kg body weight): 93.7 | faecal pH (dogs [8]; VM 0.5 mg/kg body weight): 4.9 | faecal Consistency score (dogs [8]; VM 0.5 mg/kg): 3.7 | faecal D-lactic acid concentration (dogs [8]; VM 1.0 mg/kg body weight): 0.3 | faecal Dry matter (dogs [8]; VM 1.0 mg/kg body weight): 24.2 | faecal L-lactic acid concentration (dogs [8]; VM 1.0 mg/kg body weight): 11.8 | faecal Total VFA (dogs [8]; VM 1.0 mg/kg body weight): 73.5 | faecal pH (dogs [8]; VM 1.0 mg/kg body weight): 4.9 | faecal Consistency score (dogs [8]; VM 1.0 mg/kg): 3.8 | effect on L-lactic (dogs [8]; [10]): little effect | effect on the pH, faecal consistency, dry matter content and VFA concentrations (dogs [8]; [10]): little effect | effect on concentration of d-lactic acid (dogs [8]; all levels of inclusion): reduce the concentration of d-lactic acid | MIC compared with VM added immediately after inoculation ([9]; cultures growing 3 h before addition of VM): higher MIC | highest VM level to which isolates were resistant ([9]; cultures grown 6 h before addition of VM, all Clostridium-like isolates): 8 µg/mL
